In data set [1] the target is T1, preformed α-Syn oligomers (Homo sapiens, UniProt P37840).
T1 construct: made in house; host or cells: Escherichia coli BL21
Briefly: Nile red binding assay on α-Syn oligomers. It is filed as biochemical. The note with it: compared to α-Syn oligomers alone. As for the experimental part:
Therefore, compounds that effectively reduce the toxicity of oligomers could be beneficial for the treatment of PD.
(§1) Stock solution of NR was prepared in DMSO (1 mM). […] Similar experimental protocol was used for NR binding to oligomers. FluoroMax-4 spectrofluorometer (HORIBA JobinYvon) was used with excitation and emission slit widths of 5 nm. The maximum NR fluorescence obtained at ~630 nm was used for plotting bar diagrams.

For data set [2], the target named is T2, preformed α-Syn fibrils (Homo sapiens, UniProt P37840).
T2 construct: made in house; host or cells: Escherichia coli BL21
Kind of data set: LDH cytotoxicity assay of preformed α-Syn fibrils incubated with curcumin analogs. The note with it: fibrils incubated with analog 48 h; SH-SY5Y cells. It is filed as cell-based. As for the experimental part: (§2) The concentration of the fibrils was determined by subtraction of supernatant concentration from the original concentration of α-Syn kept for fibrillation.
(§3) The percent LDH release was plotted as difference in the absorbance value of 490 nm and 690 nm, considering 100% release for the TritonX-100 treated cells.

The nature of data set [3]: Stability of curcumin analogs by time-dependent intrinsic fluorescence. It is filed as physicochemical. The note with it: 20 mM MES buffer pH 6.0, 0.01% NaN3, 37 °C. As to the method: 1μl of this DMSO-stock solution was transferred to 2 ml microfuge tube and 1 ml of 20 mM MES buffer (pH 6.0, 0.01% NaN3) was added to it and mixed immediately by vortexing. These solutions were incubated at 37 °C and their respective fluorescence was taken at certain time intervals. The fluorescence was monitored by placing the 200 μl of the incubated solution in 0.1 cm path-length quartz cuvette (Hellma, Forest Hills, NY) and the spectra were acquired by using FluoroMax-4 spectrofluorometer (HORIBA JobinYvon) instrument with excitation and emission slit widths of 5 nm and 10 nm respectively. The fluorescence intensity maxima for each sample were plotted against time of incubation and fitted in exponential decay 1 in the Origin 8.0 software according to manufacture’s protocol (Fig. 2A).

The target of the next data set is T3, α-Syn (Homo sapiens, UniProt P37840).
T3 construct: made in house; host or cells: Escherichia coli BL21
Briefly: TEM of α-Syn aggregates formed in presence of analogs. It is filed as biochemical. As to the method:
Subsequently, we examined the effect of these analogs on α-Syn oligomerization by time dependent static light scattering experiment. […] After aggregation, TEM study was done to determine the effects of these analogs on the morphology of the resultant aggregates.
The samples were then washed thrice with autoclaved MQ. The samples were then stained with 10 μl of uranyl formate 1% (w/v) and incubated in dark for 10 min. The EM image of each sample was acquired at 120 kV with magnifications in the range of 26,000X and 43,000X using a transmission electron microscope (TECNAI12 D312 FEI, Netherlands).

The target of data set [4] is T2, preformed α-Syn fibrils. Briefly: Nile red binding assay on preformed α-Syn fibrils. It is filed as biochemical. To be noted: fibrils incubated with analog 48 h. As to the method:
as §1

For data set [5], the target named is T4, α-Syn oligomers (Homo sapiens, UniProt P37840).
T4 construct: made in house; host or cells: Escherichia coli BL21
Briefly: MTT assay of α-Syn oligomers pre-incubated with curcumin analogs. The note with it: 10 μM α-Syn + 5 μM analog, 30 min RT; SH-SY5Y cells. It is filed as cell-based. From the text: (§4) It has been shown that α-Syn mutants that form oligomers preferentially are more toxic and kill dopaminergic neurons in animal models as compared to fibril forming mutants. Therefore, compounds that effectively reduce the toxicity of oligomers could be beneficial for the treatment of PD. In the present study, we tested the effect of curcumin and its analogs on the toxicity, hydrophobic exposure and morphology of α-Syn oligomers isolated using size exclusion chromatography (SEC). The toxicity of α-Syn oligomers in presence and absence of curcumin/analogs were initially tested using MTT assay. […] To further validate the effectiveness of C6 to reduce the cytotoxicity of α-Syn oligomers, we also performed LDH cytotoxicity assay and Calcein-AM/Ethidium homodimer-1 staining. […] As previously it has been proposed that curcumin reduces the oligomers toxicity by altering their exposed hydrophobic surface, we also measured the hydrophobic surface exposure of preformed α-Syn oligomers incubated with curcumin and its analogs.
For isolation of α-Syn oligomers, we used previously established protocol. Briefly, lyophilized α-Syn powder was dissolved in MES buffer, pH 6.0, 0.01% NaN3, at a concentration of 50 mg/ml. The dissolved protein was then centrifuged at 14,000 × g for 30 min at 4 °C using a table top microcentrifuge (HITACHI, himac CT15RE, Japan). […]
On the technique in general: Formazan colour is commonly taken as a measure of viable cells.

Data set [6] deals with T2, preformed α-Syn fibrils. Briefly: Calcein-AM/EthD-1 staining, preformed α-Syn fibrils with analogs. It is filed as cell-based. To be noted: SH-SY5Y cells. As for the experimental part: Previously it has been shown that curcumin decreases the toxicity of α-Syn amyloid fibrils by reducing the exposed hydrophobic surfaces. To delineate whether curcumin analogs can decrease the toxicity of preformed α-Syn fibrils, we performed cell viability assay. For this, 10-days incubated α-Syn solution was centrifuged (fibril formation was confirmed by electron microscopy (EM)) and the pelleted fibrils were then re-dissolved in same volume of 20 mM MES buffer (pH 6.0, 0.01% NaN3). The concentration of the fibrils was determined by subtraction of supernatant concentration from the original concentration of α-Syn kept for fibrillation. […] After incubation, we measured the effect of curcumin analogs on the toxicity of preformed α-Syn amyloid fibrils by MTT reduction assay on SH-SY5Y cells. […]
(§5) For this assay, SH-SY5Y cells were seeded in 96 well plate and incubated with identical concentrations of oligomers/fibrils (as used in MTT assay) in absence and presence of curcumin and its analogs for 36 h in 5% CO2 incubator at 37 °C. […] Calcein-AM/Ethidium homodimer-1 signal was then checked and imaged with an inverted fluorescence microscope (Leica DMi8). […] The free calcein emits strong fluorescence signal at ~535 nm, which could be easily observed in the green channel of a microscope. […]

Data set [7] concerns the target T2, preformed α-Syn fibrils. Kind of data set: CD spectroscopy of preformed α-Syn fibrils with analogs. To be noted: 0 h and 48 h of incubation. It is filed as biochemical. As for the experimental part:
Further, the effect of curcumin analogs on the secondary structure of protein in preformed amyloid fibrils was studied by circular dichroism (CD) spectroscopy at 0 h and after 48 h of incubation. […] To further validate this, Fourier transform infrared spectroscopy (FTIR) was also performed with these samples, where spectra were recorded from 1500 to 1800 cm^−1.The region characteristic of protein secondary structures (1600–1700 cm^−1) was deconvoluted and the peaks were assigned according to published reports. FTIR spectra in the 1600–1700 cm^−1 region of preformed α-Syn fibrils in absence and presence of curcumin and its analogs are presented in Figs 4B and S4 and their percentage of secondary structures are shown in Table-S1.
20 μl of protein solution from 80 μM stock was diluted to 200 μl in 20 mM MES buffer, pH 6.0 with 0.01% NaN3 such that final protein concentration becomes 8 μM. The protein solution was then placed into a quartz cell (Hellma, Forest Hills, NY) of 0.1 cm path-length. Spectra were recorded using JASCO-810 instrument at 25 °C. Spectra acquisition was over the wavelength range of 198–260 nm with the scan speed of 100 nm/min, bandwidth 1 nm, data pitch 1 nm and response time of 1 sec. Processing of raw data was done by subtraction of buffer spectra and subsequently smoothing according to the manufacturer’s instructions.

For data set [8], the target named is T5, α-Syn fibrils (Homo sapiens, UniProt P37840).
T5 construct: made in house; host or cells: Escherichia coli BL21
Briefly: LDH cytotoxicity assay of α-Syn fibrils formed in presence of curcumin analogs. To be noted: SH-SY5Y cells. It counts as cell-based.
From the text: as §3

In data set [9] the target is T6, preformed α-Syn amyloid fibrils (Homo sapiens, UniProt P37840).
T6 construct: made in house; host or cells: Escherichia coli BL21
Kind of data set: MTT assay of preformed α-Syn fibrils incubated with curcumin analogs. It is filed as cell-based. The note with it: fibrils incubated with analog 48 h at 37 °C; SH-SY5Y cells. As to the method: as §2

The target of data set [10] is T4, α-Syn oligomers. Briefly: LDH cytotoxicity assay of α-Syn oligomers with C1/C6. It counts as cell-based. To be noted: oligomers incubated 30 minutes with compound; SH-SY5Y cells.
From the text: as §4
10 μM of α-Syn oligomers/fibrils incubated with and without 5 μM curcumin/analogs were added to SH-SY5Y cells (10,000 cells/well) in 96 well plate. […] The percent LDH release was plotted as difference in the absorbance value of 490 nm and 690 nm, considering 100% release for the TritonX-100 treated cells.

The target of data set [11] is T4, α-Syn oligomers. Kind of data set: TEM of α-Syn oligomers with C1/C6. It is filed as biochemical.
From the text: as §4
5 μl of various species of α-Syn (50 μM) incubated in absence and presence of curcumin and its analogs were spotted on carbon coated formavar grid and air dried for 10 min. The samples were then washed thrice with autoclaved MQ. The samples were then stained with 10 μl of uranyl formate 1% (w/v) and incubated in dark for 10 min. […]

Data set [12] addresses T5, α-Syn fibrils. Kind of data set: MTT assay of α-Syn fibrils formed in presence of curcumin analogs. It is filed as cell-based. The note with it: 10 μM α-Syn fibril, 36 h, SH-SY5Y. As to the method:
Next, we measured the effect of α-Syn fibrils formed in presence and absence of curcumin analogs on the viability of SH-SY5Y neuronal cell line by MTT reduction assay. SH-SY5Y cells were incubated with 10 μM α-Syn fibril formed in presence of various curcumin analogs for 36 h. […] However, the extent of decrease in toxicity was different for different analogs. […] The calcein-AM/ethidium homodimer-1 staining also further corroborated the results obtained from MTT and LDH assay (Fig. 8C).

Data set [13] deals with T4, α-Syn oligomers. Kind of data set: Calcein-AM/EthD-1 staining, α-Syn oligomers with C1/C6. It is filed as cell-based. The note with it: SH-SY5Y cells.
From the text: It has been shown that α-Syn mutants that form oligomers preferentially are more toxic and kill dopaminergic neurons in animal models as compared to fibril forming mutants. Therefore, compounds that effectively reduce the toxicity of oligomers could be beneficial for the treatment of PD. In the present study, we tested the effect of curcumin and its analogs on the toxicity, hydrophobic exposure and morphology of α-Syn oligomers isolated using size exclusion chromatography (SEC). The toxicity of α-Syn oligomers in presence and absence of curcumin/analogs were initially tested using MTT assay. […] As previously it has been proposed that curcumin reduces the oligomers toxicity by altering their exposed hydrophobic surface, we also measured the hydrophobic surface exposure of preformed α-Syn oligomers incubated with curcumin and its analogs.
as §5

As to `COc1ccc(/C=C/C(=O)CC(=O)/C=C/c2ccc(OC)c(OC)c2)cc1OC` [C2], the “Nile red fluorescence of α-Syn oligomers (exposed hydrophobic surface)” value in [1] is “increase in NR fluorescence”. Besides, the “effect on cell death by preformed α-Syn fibrils, LDH” value on preformed α-Syn fibrils [2] was “decrease in cell death”. The “relative stability compared with curcumin (slope of normalized fluorescence versus time)” value in data set [3] is “less stable than curcumin”. Further, the “average fibril thickness of fibrils formed in presence of analog” value at α-Syn is reported as “more in comparison to fibrils formed in presence of other analogs”. For the same compound, at preformed α-Syn fibrils [4], the “Nile red fluorescence of preformed α-Syn fibrils (exposed hydrophobic surface)” value is “less NR fluorescence for fibrils as compared to curcumin”. Moreover, on α-Syn oligomers [5], the “effect on toxicity of α-Syn oligomers, MTT” value is “slight reduction in the toxicity”.
As to `COc1cc(/C=C/C(=O)CC(=O)/C=C/c2ccc(O)c(OC)c2)ccc1O` [C1, Curcumin (diferuloylmethane), reference compound], the “Calcein-AM/EthD-1 staining with preformed α-Syn fibrils” value at preformed α-Syn fibrils [6] is recorded as “less nuclear staining by EthD-1”. Also, the “secondary structure of preformed α-Syn fibrils by CD” value at preformed α-Syn fibrils [7] is recorded as “remains unaltered”. Moreover, at preformed α-Syn fibrils [2], the “effect on cell death by preformed α-Syn fibrils, LDH” value is “decrease in cell death”. Moreover, the “toxicity of α-Syn fibrils formed in presence of analog, LDH” value at α-Syn fibrils [8] is recorded as “less toxicity to cells”. Also, the “effect on toxicity of preformed α-Syn fibrils, MTT” value in [9] was “reduction in toxicity”. Further, on α-Syn oligomers [10], the “LDH release with α-Syn oligomers” value is “reduced LDH release”. For the same compound, the “morphology of α-Syn oligomers (TEM)” value on α-Syn oligomers [11] was “significantly altered their morphology”. Besides, the “toxicity of α-Syn fibrils formed in presence of analog, MTT” value at α-Syn fibrils [12] was “less toxicity to cells”. The “ethidium homodimer staining with α-Syn oligomers” value on α-Syn oligomers [13] is given as “less ethidium homodimer staining”.

Source of the values: article PMC4919791, “Effect of curcumin analogs onα-synuclein aggregation and cytotoxicity” (Scientific Reports, 2016).
